Source: ChEMBL document CHEMBL1150212, “Antitumor agents, 129. Tannins and related compounds as selective cytotoxic agents” (1992)

Assays:
Format in all cases: functional
Settings in all cases: read-out: ED50 (the source's name)
[1] = Cytotoxicity against human […] cells by tetrazolium salt-based colorimetric assay
KB = test: Cytotoxicity against human KB cells by tetrazolium salt-based colorimetric assay
A549 = test: Cytotoxicity against human A549 cells by tetrazolium salt-based colorimetric assay
HCT-8 = test: Cytotoxicity against human HCT8 cells by tetrazolium salt-based colorimetric assay
TE-671 = test: Cytotoxicity against human TE671 cells by tetrazolium salt-based colorimetric assay

Row | Compound | EC50 [1] [µg/mL] | EC50 (KB) [µg/mL] | EC50 (A549) [µg/mL] | EC50 (HCT-8) [µg/mL] | EC50 (TE-671) [µg/mL]
1 | Oc1cc(O)c2c(c1)O[C@H](c1ccc(O)c(O)c1)[C@@H](O)C2 [CIANIDANOL] | > 10 | > 10 | > 10 | > 10 | > 10
2 | O=C(O[C@@H]1C[C@](OC(=O)c2cc(O)c(O)c(O)c2)(C(=O)O)C[C@@H](OC(=O)c2cc(O)c(O)c(O)c2)[C@H]1OC(=O)c1cc(O)c(O)c(O)c1)c1cc(O)c(O)c(O)c1 | 0.43 | > 10 | > 10 | > 10 | > 10
3 | O=C(O[C@@H]1[C@@H](c2c(O)cc(O)c3c2O[C@H](c2ccc(O)c(O)c2)[C@H](OC(=O)c2cc(O)c(O)c(O)c2)C3)c2c(O)cc(O)cc2O[C@@H]1c1ccc(O)c(O)c1)c1cc(O)c(O)c(O)c1 | 3.45 | > 10 | > 10 | > 10 | > 10
4 | O=C(O[C@@H]1COC(=O)c2cc(O)c(O)c(O)c2-c2c(cc(O)c(O)c2O)C(=O)O[C@H]1[C@@H]1OC(=O)c2cc(O)c(O)c(O)c2-c2c(O)c(O)c(O)c3c2C(=O)O[C@H]1[C@@H]3O)c1cc(O)c(O)c(O)c1 [CASUARININ] | 2.24 | > 10 | > 10 | > 10 | > 10
5 | O=C1O[C@@H]2[C@@H](OC(=O)c3cc(O)c(O)c(O)c3-c3c1cc(O)c(O)c3O)[C@H](O)O[C@@H]1COC(=O)c3cc(O)c(O)c(O)c3-c3c(O)c(O)c4oc(=O)c5c(c(O)c(O)c6oc(=O)c3c4c65)-c3c(cc(O)c(O)c3O)C(=O)O[C@@H]21 [PUNICALAGIN] | > 10 | > 10 | > 10 | > 10 | > 10
6 | O=C1OC[C@H]2O[C@@H](O)[C@H](O)[C@@H](O)[C@@H]2OC(=O)c2cc(O)c(O)c(O)c2-c2c(O)c(O)c3oc(=O)c4c(c(O)c(O)c5oc(=O)c2c3c54)-c2c1cc(O)c(O)c2O [PUNICALIN] | > 10 | > 10 | > 10 | > 10 | > 10
7 | O=C(OC[C@H]1OC(O)[C@@](O)(COC(=O)c2cc(O)c(O)c(O)c2)[C@@H]1O)c1cc(O)c(O)c(O)c1 (stereo not given in full) [HAMAMELITANNIN] | > 10 | > 10 | > 10 | > 10 | > 10
8 | Oc1cc(O)c2c(c1)O[C@H](c1ccc(O)c(O)c1)[C@H](O)[C@H]2c1c(O)cc(O)c2c1O[C@H](c1ccc(O)c(O)c1)[C@H](O)[C@H]2c1c(O)cc(O)c2c1O[C@H](c1ccc(O)c(O)c1)[C@H](O)C2 [PROCYANIDIN C1] | > 10 | > 10 | > 10 | > 10 | > 10
9 | O=C(O)C1=C[C@@H](OC(=O)c2cc(O)c(O)c(O)c2)[C@@H](O)[C@H](OC(=O)c2cc(O)c(O)c(O)c2)C1 | > 10 | > 10 | > 10 | > 10 | > 10
10 | O=C(O[C@H]1[C@H](O)C[C@](O)(C(=O)O)C[C@H]1OC(=O)c1cc(O)c(O)c(O)c1)c1cc(O)c(O)c(O)c1 | 0.53 | > 10 | > 10 | > 10 | > 10
11 | O=C(O)C[C@H]1C(=O)O[C@H]2[C@H](OC(=O)c3cc(O)c(O)c(O)c3)[C@@H](OC(=O)c3cc(O)c(O)c4c3[C@H]1[C@H](O)C(=O)O4)[C@H](OC(=O)c1cc(O)c(O)c(O)c1)O[C@@H]2COC(=O)c1cc(O)c(O)c(O)c1 [CHEBULINIC ACID] | > 10 | > 10 | > 10 | > 10 | > 10
12 | CC1(C)CC[C@]2(C(=O)O[C@@H]3O[C@H](CO)[C@@H](O)[C@H](O)[C@H]3O)CC[C@]3(C)C(=CC[C@@H]4[C@@]5(C)C[C@@H](O)[C@@H]6OC(=O)c7cc(O)c(O)c(O)c7-c7c(cc(O)c(O)c7O)C(=O)OC[C@@]6(CO)[C@@H]5CC[C@]43C)[C@@H]2C1 [CASTANOPSININ A] | > 10 | > 10 | > 10 | > 10 | > 10
13 | O=C(O[C@@H]1O[C@@H]2COC(=O)c3cc(O)c(O)c(O)c3-c3c(cc(O)c(O)c3O)C(=O)O[C@@H]3[C@H]1OC(=O)c1cc(O)c(O)c4c1C1C(O)(O4)[C@]4(O)C[C@@]5(C(=O)O[C@H]6C(O)CO[C@@]65O)[C@]1(CC4=O)C(=O)O[C@@H]32)c1cc(O)c(O)c(O)c1 (stereo not given in full) [ELAEOCARPUSIN] | 2.62 | > 10 | > 10 | > 10 | > 10
14 | Oc1cc(O)c2c(c1)O[C@@]1(c3ccc(O)c(O)c3)Oc3cc(O)c4c(c3[C@@H]2[C@H]1O)O[C@H](c1ccc(O)c(O)c1)[C@H](O)[C@H]4c1c(O)cc(O)c2c1O[C@H](c1ccc(O)c(O)c1)[C@H](O)C2 [CINNAMTANNIN B1] | 3.57 | > 10 | > 10 | > 10 | > 10
